Reference: patent US20100166726A1, “COMPOSITIONS FOR IMPROVING CELLULAR UPTAKE OF A CHEMOTHERAPEUTIC AGENT IN A CELL EXHIBITING MUCIN DEREGULATION” (NORTHEASTERN UNIVERSITY, priority 2007, published 2010)
Values belong to the compound of their own block, whether it stands above or below them.

Legend:
HPAF-II cells [1] = assay: 5-FU cytotoxicity with or without benzyl-α-GalNAc pre-exposure, sulforhodamine B assay; format: cell-based, human
Description: The effects of increasing benzyl-α-GalNAc concentrations on cytotoxicity of 5-FU (108 μmol/ml) against HPAF-II cells was first tested. […] The growth inhibitory effect of 5-FU after 24 hr of exposure was determined using sulforhodamine B (Sigma-Aldrich, St. Louis, Mo.) assay the percent of viable cells was calculated as follows: […]

Capan-1 cells [2] = assay: as above; format: cell-based, human
U-87 MG cells [3] = assay: as above; format: cell-based, human
HPAF-II cells [4] = assay: Neuraminidase toxicity and effect on 5-FU cytotoxicity, sulforhodamine B assay; format: cell-based, human
Description: The enzyme neuraminidase, which cleaves terminal sialic acid residues, was used in these studies (Varki et al., J. Biol. Chem., 258:12465-12471 [1983]). […] The removal of sialic acid residues from cell surface was confirmed by labeling cells with 5 μl/well FITC conjugated MAA lectin for 30 mins. The effects of neuraminidase on CD227 antibody association was determined by labeling cells with 5 μl/well CD227 antibody for 4 hr. […] The effects of neuraminidase on 5-FU cytotoxicity was determined by exposing cells to 0.05 U/ml neuraminidase for 1 hr followed by treatment with 5-FU for 24 hr. Percent cell viability was determined using sulforhodamine B assay.

Capan-1 tumors = assay: Anti-tumoral activity in Capan-1 pancreatic tumor model (tumor volume, histochemical staining, neoplastic cell density); format: in vivo, SCID mice
Description: All animal work was performed in the animal facility at Northeastern University, Boston, Mass. in accordance with the institutional guidelines. Female SCID (severe combined immunodeficient mice), 6 to 8 weeks old purchased from Massachusetts General Hospital, Boston, Mass. were used for our study since they have been used successfully for developing human xenografts of pancreatic tumors. To establish the tumors, 2.5×10^6 Capan-I cells in 0.1 ml of cell culture medium were injected into the subcutaneous dorsa of all mice. Mice were weighed daily using a digital weighing balance (AccuSeries®, Fisher Scientific, Arvada, Colo.) and tumor volumes were also measured every day using an electronic digital caliper (Control Company, Friendswood, Tex.). Tumor volumes were calculated using the formula a^2×b×0.52, where “a” is the longer diameter and “b” is the shorter diameter. Once the tumor volumes were approximately 50 mm^3-70 mm^3 the experimental groups received intratumoral injections of benzyl-α-GalNAc (0.1 ml injection; 10 mg/ml) whereas […] at intervals of 48 hr. When the tumor volumes were approximately 100 mm^3 5-FU was administered via the intravenous route. Animals in treatment groups received two injections (0.1 ml) of 5-FU at interval of 4 days whereas control mice received saline (0.1 ml). The total dose of 5-FU administered was 125 mg/kg. At the end of the experiment animals were sacrificed, tumor tissue was surgically removed and fixed in 10% formalin at 4° C. for histochemical staining.
For histochemical staining, paraffin-embedded tissue sections (5 μm) were stained with hematoxylin and eosin (H&E) to evaluate and compare the extent of tissue viability. The tumor sections were scanned and qualitative images captured using brightfield microscopy (Olympus BX61WI, NY). The number of tumor cells in each section was quantified using bioquant imaging software and expressed as percent of total tumor area. To quantify the total tumor area we first traced the outline of the entire tumor section in each field of view (FOV). The pixels within the traced area were then selected and the pixel count was determined by the software. A total of five FOV were analyzed to determine the total pixel count of the tumor area. Microscope stage encoders were used to ensure that no tumor area was counted more than once. Similarly the total pixel count of the neoplastic cells featured in blue in each FOV was determined. The total percent of neoplastic cell density was calculated as follows: […]
For these studies the pancreatic cell line, Capan-1 was used to used to establish a pancreatic tumor model. Capan-1 tumors were established in subcutaneous dorsa of female SCID mice (see, Example 7). […] 5-FU therapy began when the tumor size was approximately 100 mm^3.

U-87 MG cells [5] = assay: Intracellular uptake of 5-FU by immunofluorescence labeling; format: cell-based, human
Description: (§1) Capan-1 and U-87 MG cells were exposed to the maximum non-toxic concentration of benzyl-α-GalNAc for 48 hr followed by 1 hr and 4 hr exposure to 5-FU (50 μmol/ml). The intracellular levels of the drug were determined using a primary antibody against 5-FU followed by FITC-conjugated secondary antibody. Specifically, sterile cover slips were placed in 24-well plates (Corning, N.Y.). Cells were seeded at 2×10^4 per ml in the same 24-well plates. Following a 24 hr incubation period at 37° C. cells was exposed to the maximum non-toxic concentration of benzyl-α-GalNAc solution prepared in cell culture media, the control cells were incubated in growth media without the O-glycosylation inhibitor. Following an additional 48 hr of incubation, each row was washed with 1×PBS and treated with 5-FU prepared in cell growth medium. The intracellular uptake of 5-FU following 1 hr and 4 hr of cell exposure to drug was determined by immunofluorescence labeling. Briefly, the medium containing 5-FU was aspirated and cells were washed twice with 1×PBS. The cells were then fixed with cold methanol for 10 min at −20° C. followed by rinsing with cold acetone. The cells were next washed twice with 1×PBS followed by 30 min rehydration in 1×PBS. For immunolabeling, cells were exposed to 200 μl (1:1000 dilution; stock concentration: 1 mg/ml) of primary antibody against 5-FU (Lampire Biological Laboratories, Pipersville, Pa.) for 1 hr at room temperature. The unassociated primary antibody was removed by washing three times with 1×PBS and cells were then incubated at room temperature with 200 μl (1:1000 dilution; stock concentration: 1 mg/ml) of fluorescein isothiocyanate (FITC)-conjugated goat anti-mouse IgG secondary antibody (Lampire Biological Laboratories, Pipersville, Pa.). Following 1 hr incubation with the secondary antibody, cells were washed twice with 1×PBS to remove any unassociated secondary antibody and the fluorescence intensity was measured using a fluorescence microplate reader (Bio-Tek® Instruments Inc., VT) at excitation wavelength of 485 nm and emission wavelength of 528 nm. The intracellular uptake of 5-FU was observed under a fluorescence microscope. The coverslip from each well was mounted onto a glass microslide (Corning, N.Y.) with SlowFade® Gold antifade reagent (Invitrogen, Carlsbad, Calif.). The images were captured using a combination of fluorescence and DIC microscopic applications at 20× magnification (Olympus BX61WI-Melville, N.Y.).

Capan-1 cells [6] = assay: as above
Description: as §1

Capan-1 cells [7] = assay: Cytotoxic activity of chemotherapeutic agents with or without benzyl-α-GalNAc pretreatment, sulforhodamine B assay; format: cell-based, human; settings: benzyl-α-GalNAc 48 hr, then drug 24 hr
Description: Human pancreatic cancer cell morphology was visualized using light microscopy. Six hydrophilic chemotherapeutic agents namely cisplatin, gemcitabine, carboplatin, methotrexate, doxorubicin, vinblastine and six lipophilic agents namely lomustine, busulfan, camptothecin, etoposide, teniposide and paclitaxel with molecular weights ranging from approximately 200 to 900 were used. Two different concentrations of each drug type were evaluated in the presence and absence of heavily O-glycosylated chains with Benzyl-α-GalNAc as O-glycosylation inhibitor. Cell viability was determined using Sulforhodamine B assay. The percent change in cell viability was used to assess the overall benefit of reducing mucin in Capan-1 cells when different cytotoxic drugs are employed.
The growth inhibitory effect of the chemotherapeutic agent after 24 hr of exposure was determined by sulforhodamine B assay and percent of viable cells was calculated as follows: […]

[8] = 5-FU exposure 1 h, Benzyl-α-GalNAc + (48 hr pre-treatment)
[9] = 5-FU exposure 1 h, Benzyl-α-GalNAc −
[10] = 5-FU exposure 4 h, Benzyl-α-GalNAc + (48 hr pre-treatment)
[11] = 5-FU exposure 4 h, Benzyl-α-GalNAc −

Intracellular uptake of 5-Fluorouracil, fluorescence intensity (U-87 MG cells [5]; [8]): 2346.9 arbitrary units
Intracellular uptake of 5-Fluorouracil, fluorescence intensity (U-87 MG cells [5]; [9]): 3757.0 arbitrary units
Intracellular uptake of 5-Fluorouracil, fluorescence intensity (U-87 MG cells [5]; [10]): 2989.4 arbitrary units
Intracellular uptake of 5-Fluorouracil, fluorescence intensity (U-87 MG cells [5]; [11]): 3704.9 arbitrary units
staining patterns of 5-FU (imaging), pre-treated with benzyl-α-GalNAc (U-87 MG cells [5]; 1 hr or 4 hr of exposure to 5-FU (50 μmol/ml)): did not alter
Intracellular uptake of 5-Fluorouracil, fluorescence intensity (Capan-1 cells [6]; [8]): 7271.4 arbitrary units
Intracellular uptake of 5-Fluorouracil, fluorescence intensity (Capan-1 cells [6]; [9]): 1696.9 arbitrary units
Intracellular uptake of 5-Fluorouracil, fluorescence intensity (Capan-1 cells [6]; [10]): 3933.3 arbitrary units
Intracellular uptake of 5-Fluorouracil, fluorescence intensity (Capan-1 cells [6]; [11]): 4253.0 arbitrary units
fluorescence staining of intracellular 5-FU (imaging), pre-treated with benzyl-α-GalNAc vs 5-FU alone (Capan-1 cells [6]; 1 hr of exposure to 5-FU (50 μmol/ml)): higher fluorescence staining
fluorescence staining of intracellular 5-FU (imaging), pre-treated with benzyl-α-GalNAc vs controls (Capan-1 cells [6]; 4 hr of exposure to 5-FU (50 μmol/ml)): no difference
Structure (SMILES): O=c1[nH]cc(F)c(=O)[nH]1 [5-FU, 5-fluorouracil]
percent viability (HPAF-II cells [1]; 5-FU (108 μmol/ml) alone, 24 hr): 77.1±2.5%
percent viability (HPAF-II cells [1]; pretreated with benzyl-α-GalNAc 0.8 mg/ml for 48 hr, then 5-FU (108 μmol/ml) 24 hr): 63.4±8.6%
percent viability (Capan-1 cells [2]; 5-FU (80 μmol/ml) alone): 65.9±2%
percent viability (Capan-1 cells [2]; benzyl-α-GalNAc (0.4 mg/ml) followed by 5-FU (80 μmol/ml)): 53.6±3.6%
percent cell viability (U-87 MG cells [3]; 5-FU alone): 37%
percent cell viability (U-87 MG cells [3]; benzyl-α-GalNAc (0.8 mg/ml) prior to 5-FU): 37%
percent viability vs 5-FU alone (HPAF-II cells [4]): not significantly altered
percent viability (HPAF-II cells [4]; human, 24 hr): 49%±4.6
histochemical staining of tumor sections, neoplastic cells (Capan-1 tumors; H&E stained sections): fewer tumor cells
tumor volume compared to control tumors (saline group) (Capan-1 tumors; benzyl-α-GalNAc intratumoral days 4, 6, 8, 10, 5-FU intravenous, total 125 mg/kg): significantly lower
Percent Tumor Area (neoplastic cell density as percent of total tumor area) (Capan-1 tumors; bioquant imaging software, tumor sections at end of experiment): 21.0 ± 1.4%

Structure (SMILES): CC[C@@]1(O)C(=O)OCc2c1cc1n(c2=O)Cc2cc3ccccc3nc2-1 [Camptothecin]
Percent increase in chemotherapeutic activity (chemotherapeutic benefit) when pretreated with benzyl-α-GalNAc (Capan-1 cells [7]): 34%
